What was measured:
Assay type in all cases: in vivo
pale smartweed (Po) [1] = experiment: Test Example 11: crop plant selectivity by upland field foliage treatment (corn), herbicidal effects; parameters: scale not given here; conditions: dose 1.6 g ai/10a
Method in brief: (§1)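 Corn and the weed species were sown together in sand-filled pots and grown in a greenhouse for 2 weeks before foliar treatment. Herbicidal effect was scored on day 14 after treatment against a graded standard scale, with corn phytotoxicity scored alongside.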

China jute (Ab) = experiment: as above; parameters: scale not given here; conditions: dose 1.6 g ai/10a
Method in brief: as §1

soybean (Gl) = experiment: Test Example 6: crop plant selectivity by upland field soil treatment (soybean), phytotoxicity; parameters: scale not given here; conditions: 21st day after application
Method in brief: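 Pre-emergence soil treatment; sand-filled pots, seeds sown then soil-covered; greenhouse culture; visual rating of weed control and soybean injury on day 21 post-application per standard scale.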

rice flatsedge (Ci) = experiment: Test Example 2: herbicidal effects by upland field soil treatment; conditions: 100 g of the active ingredient per 10 ares;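 also: grade of growth control; 5 = at least 90%; 4 = 70 to 90%; 3 = 50 to 70%; 2 = 30 to 50%; 1 = 10 to 30%; 0 = under 10%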
Description: (§2) (Test on Herbicidal Effects by Upland Field Soil Treatment)

pale smartweed (Po) [2] = experiment: as above; conditions: 100 g of the active ingredient per 10 ares
Description: as §2

[3] = test system: common lambsquarters (Ch); experiment: as above; conditions: 100 g of the active ingredient per 10 ares;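 also: grade of growth control; 5 = at least 90%; 4 = 70 to 90%; 3 = 50 to 70%; 2 = 30 to 50%; 1 = 10 to 30%; 0 = under 10%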
Description: as §2

Digitaria ciliaris (Di) = experiment: as above; conditions: 100 g of the active ingredient per 10 ares;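 also: grade of growth control; 5 = at least 90%; 4 = 70 to 90%; 3 = 50 to 70%; 2 = 30 to 50%; 1 = 10 to 30%; 0 = under 10%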
Description: as §2

barnyardgrass (Ec) = experiment: as above; conditions: 100 g of the active ingredient per 10 ares;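 also: grade of growth control; 5 = at least 90%; 4 = 70 to 90%; 3 = 50 to 70%; 2 = 30 to 50%; 1 = 10 to 30%; 0 = under 10%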
Description: as §2

slender amaranth (Am) = experiment: as above; conditions: 100 g of the active ingredient per 10 ares
Description: as §2

[4] = evaluated on the 21st day after application
[5] = upland field foliage treatment (corn test), 14th day after treatment
[6] = 21st day after the application, index 0-5 of Table 47

C#CC(C)Oc1cc(-c2cn(C)c(C(F)(F)F)cc2=O)c(F)cc1Cl (racemic) [Compound 6-10]
Herbicidal effects Po (pale smartweed (Po) [1]; pale smartweed, foliage treatment, evaluated on 14th day after treatment, index per Table 47): 4
Herbicidal effects Ab (China jute (Ab); China jute, foliage treatment, evaluated on 14th day after treatment, index per Table 47): 5
Phytotoxicity Gl (soybean (Gl); dose 1.6 g ai/10a): 0
Herbicidal effects Ci (rice flatsedge (Ci); [4]): 5
Herbicidal effects Po (pale smartweed (Po) [2]; [4]): 5
Herbicidal effects Ch [3, 4]: 5
Herbicidal effects Di (Digitaria ciliaris (Di); [4]): 5
Herbicidal effects Ec (barnyardgrass (Ec); [4]): 5
Herbicidal effects Am (slender amaranth (Am); [4]): 5

CCCC(=O)c1cc(-c2ccc(C(F)(F)F)n(C)c2=O)c(F)cc1Cl [Compound No. 1-194, 3-[4-chloro-2-fluoro-5-(1-oxobutyl)phenyl]-1-methyl-6-trifluoromethyl-2(1H)-pyridone]
Herbicidal effects Po (pale smartweed (Po) [1]; [5]): 5
Herbicidal effects Ab (China jute (Ab); [5]): 5
Phytotoxicity Gl (soybean (Gl); dose 6.3 g ai/10a): 1
Herbicidal effects Ci (rice flatsedge (Ci); [4]): 5
Herbicidal effects Po (pale smartweed (Po) [2]; [4]): 5
Herbicidal effects Ch [3, 4]: 5
Herbicidal effects Di (Digitaria ciliaris (Di); [4]): 5
Herbicidal effects Ec (barnyardgrass (Ec); [4]): 5
Herbicidal effects Am (slender amaranth (Am); [4]): 5

C#CC(C)Oc1cc(Cl)cc(F)c1-c1ccc(C(F)(F)F)n(C)c1=O (centres unmarked) [1′-5]
Herbicidal effects Po (pale smartweed (Po) [1]; [5]): 5
Herbicidal effects Ab (China jute (Ab); [5]): 5
Phytotoxicity Gl (soybean (Gl); dose 1.6 g ai/10a): 1
Phytotoxicity Gl (soybean (Gl); dose 6.3 g ai/10a): 2
Herbicidal effects Ci (rice flatsedge (Ci); [4]): 5
Herbicidal effects Po (pale smartweed (Po) [2]; [4]): 5
Herbicidal effects Ch [3, 4]: 5
Herbicidal effects Di (Digitaria ciliaris (Di); [4]): 5
Herbicidal effects Ec (barnyardgrass (Ec); [4]): 5
Herbicidal effects Am (slender amaranth (Am); [4]): 5

Cn1c(C(F)(F)F)ccc(-c2c(F)cc(Cl)c3oc(CO)cc23)c1=O [Compound No. 4-5, 3-(7-chloro-5-fluoro-2-hydroxymethylbenzofuran-4-yl)-1-methyl-6-trifluoromethyl-2-(1H)-pyridone]
Herbicidal effects Po (pale smartweed (Po) [1]; [5]): 5
Herbicidal effects Ab (China jute (Ab); [5]): 5
Phytotoxicity Gl (soybean (Gl); dose 6.3 g ai/10a): 2
Herbicidal effects Ci (rice flatsedge (Ci); [4]): 5
Herbicidal effects Po (pale smartweed (Po) [2]; [4]): 5
Herbicidal effects Ch [3, 4]: 5
Herbicidal effects Di (Digitaria ciliaris (Di); [4]): 5
Herbicidal effects Ec (barnyardgrass (Ec); [4]): 5
Herbicidal effects Am (slender amaranth (Am); [4]): 5

Cn1c(C(F)(F)F)ccc(-c2cc(OCCCl)c(Cl)cc2F)c1=O [1-171]
Herbicidal effects Po (pale smartweed (Po) [1]; [5]): 5
Herbicidal effects Ab (China jute (Ab); [5]): 5
Phytotoxicity Gl (soybean (Gl); dose 6.3 g ai/10a): 1
Herbicidal effects Ci (rice flatsedge (Ci); [4]): 5
Herbicidal effects Po (pale smartweed (Po) [2]; [4]): 5
Herbicidal effects Ch [3, 4]: 5
Herbicidal effects Di (Digitaria ciliaris (Di); [4]): 5
Herbicidal effects Ec (barnyardgrass (Ec); [4]): 5
Herbicidal effects Am (slender amaranth (Am); [4]): 5

CCOC(=O)CON=Cc1cc(-c2ccc(C(F)(F)F)n(C)c2=O)c(F)cc1Cl [Compound 1-191]
Herbicidal effects Po (pale smartweed (Po) [1]; [5]): 5
Herbicidal effects Ab (China jute (Ab); [5]): 5
Phytotoxicity Gl (soybean (Gl); dose 6.3 g ai/10a): 2
Herbicidal effects Ci (rice flatsedge (Ci); [4]): 5
Herbicidal effects Po (pale smartweed (Po) [2]; [4]): 5
Herbicidal effects Ch [3, 4]: 5
Herbicidal effects Di (Digitaria ciliaris (Di); [4]): 5
Herbicidal effects Ec (barnyardgrass (Ec); [4]): 5
Herbicidal effects Am (slender amaranth (Am); [4]): 5

C#CCOc1cc(-c2ccc(C(F)(F)F)n(C)c2=O)c(F)cc1Cl [1-18]
Herbicidal effects Po (pale smartweed (Po) [1]; [5]): 5
Herbicidal effects Ab (China jute (Ab); [5]): 5
Phytotoxicity Gl (soybean (Gl); dose 1.6 g ai/10a): 1
Herbicidal effects Ci (rice flatsedge (Ci); [6]): 5
Herbicidal effects Po (pale smartweed (Po) [2]; [6]): 5
Herbicidal effects Ch [3, 6]: 5
Herbicidal effects Di (Digitaria ciliaris (Di); [6]): 5
Herbicidal effects Ec (barnyardgrass (Ec); [6]): 5
Herbicidal effects Am (slender amaranth (Am); [6]): 5

C#CCN1C(=O)COc2cc(Cl)c(-c3ccc(C(F)(F)F)n(C)c3=O)cc21 [Compound 2-25]
Herbicidal effects Po (pale smartweed (Po) [1]; [5]): 5
Herbicidal effects Ab (China jute (Ab); [5]): 5
Phytotoxicity Gl (soybean (Gl); dose 1.6 g ai/10a): 0
Phytotoxicity Gl (soybean (Gl); dose 6.3 g ai/10a): 1
Herbicidal effects Ci (rice flatsedge (Ci); [4]): 5
Herbicidal effects Po (pale smartweed (Po) [2]; [4]): 5
Herbicidal effects Ch [3, 4]: 5
Herbicidal effects Di (Digitaria ciliaris (Di); [4]): 5
Herbicidal effects Ec (barnyardgrass (Ec); [4]): 5
Herbicidal effects Am (slender amaranth (Am); [4]): 5

From US6472348B1, “Pyridone derivatives and herbicides” (Kumiai Chemical Industry Co., Ltd., priority 1996, dated 2002)
